The source of these data is patent publication US6673608B1, “Somatic embryogenic regeneration of Acacia mangium” (Institute of Molecular Agrobiology, priority 2002, dated 2004).

Each structure is given as a SMILES string.

Experiment [1] relates to A. mangium immature embryo axes. The experiment in a line: Embryogenic callus induction from immature embryo axes. Type of experiment: cell-based, Acacia mangium. Conditions: immature embryo axes on MS basal medium. On the procedure: One and half months old immature green pods were collected from twenty-meter high adult A. mangium Willd. trees at Science Park Drive of Singapore. Green seeds were gently isolated from pods and washed with sterile double deionized water (ddH2O) 4-5 times. After green seeds were surface sterilised with 30% market clorox bleach (NaClO) for 5 minutes and washed with sterile ddH2O 5 times, the seeds were sterilised again with 0.1% HgCl2 for 6 minutes and washed with sterile ddH2O 5 times. Seed coats were removed with sterilised forceps and embryos were isolated. Embryo axes (EA) (FIG. 1A) were gently separated with sterile forceps and used as explants for embryogenic callus induction.
All media were adjusted to pH 5.8 after autoclaving at 121° C. for 25 min. Plant growth regulators tested in experiments were added into media after autoclaving but other additional substances were added into media before autoclaving. All cultures were maintained under the warm white fluorescent lights at a range of irradiance of 23.41-26.01 μmol.s^−1m^−2, with 16 h photoperiod and at 28° C. […]

In the next experiment the test system is globular somatic embryos. Description: Somatic embryo maturation (two-step maturation procedure). Type of experiment: cell-based, Acacia mangium. Conditions: ½ MS maturation media. On the procedure:
All media were adjusted to pH 5.8 after autoclaving at 121° C. for 25 min. Plant growth regulators tested in experiments were added into media after autoclaving but other additional substances were added into media before autoclaving. All cultures were maintained under the warm white fluorescent lights at a range of irradiance of 23.41-26.01 μmol.s^−1m^−2, with 16 h photoperiod and at 28° C.
Globular embryos (FIGS. 1B-C) induced from induction medium containing IAA 0.25 mg/l and TDZ 2.0 mg/l (AM-304) were cultured on ½ MS basal medium supplemented with 0-5.0 mg/l of GA3, 30-50 g/l of sucrose, Vc 100 mg/l, Asn 150 mg/l, CH 100 mg/l, Gln 150 mg/l, Pro 150 mg/l, phytagel 0.35% (g/l), and activated charcoal 0.1% for thirty days. Somatic embryos were then transferred onto maturation medium AM-425 and cultured for 40 days. Cotyledon somatic embryos (mature somatic embryos) were then transferred onto the medium AM-424 for germination. Each experiment was repeated twice with a total of 250 globular somatic embryos for each medium combination. Seedlings were transferred to ½ MS basal medium containing sucrose 20 g/l as well as phytagel 0.35% and cultured for two months before being transferred to pot soil consisting of peat soil: sand (3:1). […]

Regarding `O=C(Nc1ccccc1)Nc1cnns1` [TDZ, 1-Phenyl-3-(1,2,3-thiadiazol-5-yl)Urea], the “embryogenic callus induction / somatic embryogenesis (result in words)” value in experiment [1] was “effective to induce embryogenic callus”. In the case of `C=C1C[C@]23C[C@@]1(O)CC[C@H]2[C@@]12C=C[C@H](O)[C@@](C)(C(=O)O1)[C@H]2[C@@H]3C(=O)O` [GA3, Gibberellic Acid], in the experiment on globular somatic embryos, the “development of globular somatic embryos to torpedo and cotyledon stage (result in words)” value is on record as “promoted somatic embryo maturation”.
